From article PMC8290231 (Cancer Medicine, 2021) come the findings set out here.

For one data set, the target named is T1, FGFR3‐K650E (Homo sapiens, UniProt P22607, K650E).
T1 construct: purchased KINOMEscan™ (commercial assay)
Description: KINOMEscan binding affinity assay.

The next data set addresses T2, FGFR2‐N550K (Homo sapiens, UniProt P21802, N549K).
T2 construct: purchased KINOMEscan™ (commercial assay)
The data set is described as follows: KINOMEscan binding affinity assay.

The next data set deals with T3, FGFR3‐G697C (Homo sapiens, UniProt P22607, G697C).
T3 construct: purchased KINOMEscan™ (commercial assay)
Description: KINOMEscan binding affinity assay.

For data set [1], the system named is Ba/F3‐FGFR1‐V561M xenograft. The data set is described as follows: Mouse xenograft tumor model. The format is in vivo, CB17‐SCID mice. The note with it: 20 mg/kg, p.o., q2d (b60 prints Bid). An excerpt: (§1) All animal studies were approved by the Institutional Animal Care and Use Committee. Male CB17‐SCID mice were purchased from Vital River Laboratory Animal Technology Inc. (Beijing, China). The right flanks of SCID mice were subcutaneously injected with 2 x 10^6 Ba/F3‐FGFR1, Ba/F3‐FGFR1‐V561F, or Ba/F3‐FGFR1‐V561M cells, respectively. When the average tumor volume reached 100–200 mm^3, mice bearing tumor were randomly divided into groups and treated with compounds or vehicle. All the compounds were suspended in 0.5% CMC‐Na aqueous solution. […] The body weight and tumor volume of animals were measured once every 2 days. Tumor volumes were calculated as L×W×W/2, where L and W are the length and width of the tumor, respectively. At the experiment terminal, tumor tissues were dissected, paraffin embedded, and sectioned for hematoxylin and eosin (H&E), immunohistochemistry (IHC), and TUNEL analysis.

Data set [2] deals with T4, FGFR2 (Homo sapiens, UniProt P21802). The data set is described as follows: KINOMEscan binding affinity assay.
A short description of data set [3]: Mortality and body weight in xenograft studies. The note with it: 10 or 20 mg/kg q2d, oral gavage, xenograft mice. Type of data set: in vivo, CB17‐SCID mice.
Source text: as §1

For a further data set, the target named is T5, FGFR3‐V555 M (Homo sapiens, UniProt P22607, V555M).
T5 construct: purchased KINOMEscan™ (commercial assay)
The data set is described as follows: KINOMEscan binding affinity assay.

Data set [4] deals with T4, FGFR2. Description: FRET-based Z′-Lyte kinase assay. Type of data set: biochemical.
In another data set the target is FGFR3 (Homo sapiens, UniProt P22607). The data set is described as follows: FRET-based Z′-Lyte kinase assay. The format is biochemical.
A further data set concerns FGFR1–FGFR3 cell lines. The data set is described as follows: CCK-8 proliferation, cancer cells harboring FGFR aberrations (summary range). The format is cell-based. The note with it: range over cell lines of Table 2; read-out: antiproliferative IC50 values, FGFR1–FGFR3 cell lines. As to the method:
(§2) Cells were seeded in 96‐well plate in complete medium (1000–6000 cells/well) and cultured for overnight. Then the cells were exposed to gradient concentrations (0.0005–10 μM) of compounds. Cell proliferation was analyzed by Cell Counting Kit 8 (CK04, Dojindo Laboratories, Japan) after co‐incubation for a further 72 h. IC50 values were calculated by fitting of concentration–response curves using GraphPad Prism 8.01 software. Each assay was repeated at least three times.
(§3) The expression and activation levels of FGFR1–4 in these cells were determined via western blot experiments (Figure S1).

In the next data set the test system is pAKT in SNU‐16. The data set is described as follows: Western blot of pAKT. The format is cell-based. The note with it: SNU‐16, FGFR2 overexpressed, 3.7 to 300 nM. As to the method: (§4) Cells were treated with different concentrations of compound or DMSO for indicated time. Then, cells were lysed with 1 × SDS sample lysis buffer (recommended by CST). […] After blocking with 5% BSA in TBST solution (0.5% Tween‐20) at room temperature for 4 hrs, the membranes were incubated with the corresponding primary antibody (1:2000–1:200) at 4℃ overnight. After washing with TBST for 3–5 times, the HRP‐conjugated secondary antibodies were incubated for 2 hrs. The protein signals were detected with Amersham Imager 600 system (GE, Boston, MA, USA) using an ECL western blotting detection kit (Thermo Fisher Scientific, Waltham, MA, USA).
A general note: Immunoblotting shows a protein as a band on a membrane.

Another data set relates to pAKT in NCI‐H716. The data set is described as follows: Western blot of pAKT. Type of data set: cell-based. The note with it: NCI‐H716, FGFR2 overexpressed, 3.7 to 300 nM. As to the method: as §4
The subject of the next data set is Ba/F3‐FGFR1. Description: Cell cycle analysis by flow cytometry (propidium iodide). Type of data set: cell-based. The note with it: Ba/F3‐FGFR1, 100 nM, 24 h. As to the method:
About 6 × 10^5 cells were re‐suspended in 150 μl of BD Cytofix/Cytoperm buffer solution I for 10 min at room temperature. The cell suspensions were added with BD Cytofix/Cytoperm buffer solution II and incubated with another 10 min at room temperature, and then incubated with 200 μl of propidium iodide buffer (0.1 mg/ml) in the dark for 10 min at 4℃. Assays were performed with a Guava easyCyte flow cytometer (Merck, USA).
Background: In flow cytometry, cells or beads pass a laser one at a time.

The next data set deals with FGFR4 (Homo sapiens, UniProt P22455). Description: KINOMEscan binding affinity assay.
In a further data set the test system is SNU16. The data set is described as follows: CCK-8 cell proliferation assay. The format is cell-based. The note with it: Homo sapiens, SNU-16; FGFR2 amplification; CCK-8, 72 h; read-out: antiproliferative IC50, SNU16. Here is the method:
(§5) The base medium for MDA‐MB‐453 cell line is DMEM medium (CORNING, USA). All other cell lines were cultured in RPMI‐1640 medium supplemented with 10% FBS, 100 U/ml of penicillin, and […] of streptomycin in 5% CO2 at 37℃. The cells in the logarithmic growth phase were used for the experiments.
as §2, §3
(Formazan colour is commonly taken as a measure of viable cells.)

The next data set relates to RT112. The data set is described as follows: CCK-8 cell proliferation assay. The note with it: Homo sapiens, RT-112; FGFR3‐TACC3; CCK-8, 72 h; read-out: antiproliferative IC50, RT112. The format is cell-based. As to the method: as §5, §2, §3
The next data set relates to H1581. Description: CCK-8 cell proliferation assay. Type of data set: cell-based. The note with it: Homo sapiens, NCI-H1581; FGFR1 amplification; CCK-8, 72 h; read-out: antiproliferative IC50, H1581. Here is the method: as §5, §2, §3
The test system of another data set is MDA‐MB‐453. The data set is described as follows: CCK-8 cell proliferation assay. The format is cell-based. The note with it: Homo sapiens, MDA-MB-453; FGFR4‐Y367C; CCK-8, 72 h; read-out: antiproliferative IC50, MDA‐MB‐453. Here is the method: as §5, §2, §3
Another data set deals with KATOIII. The data set is described as follows: CCK-8 cell proliferation assay. The format is cell-based. The note with it: Homo sapiens, KATO III; FGFR2 amplification; CCK-8, 72 h; read-out: antiproliferative IC50, KATOIII. As to the method: as §5, §2, §3
For another data set, the system named is MKN‐1. The data set is described as follows: CCK-8 cell proliferation assay. The note with it: Homo sapiens, MKN-1; negative control; CCK-8, 72 h; read-out: antiproliferative IC50, MKN‐1. Type of data set: cell-based. Here is the method: as §5, §2, §3
For the next data set, the system named is MDA‐MB‐231. Description: CCK-8 cell proliferation assay. The format is cell-based. The note with it: CCK-8, 72 h. As to the method:
as §5, §2, §3

Setting [5] is: Homo sapiens, MDA-MB-231, 72 h, read-out: antiproliferative IC50, MDA‐MB‐231, negative control.

Where two headings read alike, the source gives them in different places.

T4 sequence (P21802 22-821): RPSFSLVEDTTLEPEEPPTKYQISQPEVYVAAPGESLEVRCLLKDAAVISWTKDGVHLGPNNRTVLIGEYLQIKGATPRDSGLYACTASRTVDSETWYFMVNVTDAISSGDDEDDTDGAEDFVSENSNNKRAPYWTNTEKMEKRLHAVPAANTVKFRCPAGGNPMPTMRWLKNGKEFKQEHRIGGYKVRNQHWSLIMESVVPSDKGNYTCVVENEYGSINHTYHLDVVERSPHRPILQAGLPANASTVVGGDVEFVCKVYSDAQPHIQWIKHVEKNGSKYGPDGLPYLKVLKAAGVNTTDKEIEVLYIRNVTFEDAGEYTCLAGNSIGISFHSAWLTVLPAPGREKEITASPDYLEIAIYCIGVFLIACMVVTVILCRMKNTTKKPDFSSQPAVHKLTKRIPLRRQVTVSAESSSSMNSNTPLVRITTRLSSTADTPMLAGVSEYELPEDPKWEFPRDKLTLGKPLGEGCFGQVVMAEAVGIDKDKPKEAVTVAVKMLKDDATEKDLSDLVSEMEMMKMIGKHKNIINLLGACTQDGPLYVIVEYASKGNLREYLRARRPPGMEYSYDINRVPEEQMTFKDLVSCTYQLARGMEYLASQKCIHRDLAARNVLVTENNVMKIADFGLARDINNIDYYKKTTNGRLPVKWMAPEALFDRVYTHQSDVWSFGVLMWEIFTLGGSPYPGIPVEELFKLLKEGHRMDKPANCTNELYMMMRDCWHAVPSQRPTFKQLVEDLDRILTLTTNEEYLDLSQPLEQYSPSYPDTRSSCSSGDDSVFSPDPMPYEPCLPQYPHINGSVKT
Chain of FGFR3 (P22607 23-806): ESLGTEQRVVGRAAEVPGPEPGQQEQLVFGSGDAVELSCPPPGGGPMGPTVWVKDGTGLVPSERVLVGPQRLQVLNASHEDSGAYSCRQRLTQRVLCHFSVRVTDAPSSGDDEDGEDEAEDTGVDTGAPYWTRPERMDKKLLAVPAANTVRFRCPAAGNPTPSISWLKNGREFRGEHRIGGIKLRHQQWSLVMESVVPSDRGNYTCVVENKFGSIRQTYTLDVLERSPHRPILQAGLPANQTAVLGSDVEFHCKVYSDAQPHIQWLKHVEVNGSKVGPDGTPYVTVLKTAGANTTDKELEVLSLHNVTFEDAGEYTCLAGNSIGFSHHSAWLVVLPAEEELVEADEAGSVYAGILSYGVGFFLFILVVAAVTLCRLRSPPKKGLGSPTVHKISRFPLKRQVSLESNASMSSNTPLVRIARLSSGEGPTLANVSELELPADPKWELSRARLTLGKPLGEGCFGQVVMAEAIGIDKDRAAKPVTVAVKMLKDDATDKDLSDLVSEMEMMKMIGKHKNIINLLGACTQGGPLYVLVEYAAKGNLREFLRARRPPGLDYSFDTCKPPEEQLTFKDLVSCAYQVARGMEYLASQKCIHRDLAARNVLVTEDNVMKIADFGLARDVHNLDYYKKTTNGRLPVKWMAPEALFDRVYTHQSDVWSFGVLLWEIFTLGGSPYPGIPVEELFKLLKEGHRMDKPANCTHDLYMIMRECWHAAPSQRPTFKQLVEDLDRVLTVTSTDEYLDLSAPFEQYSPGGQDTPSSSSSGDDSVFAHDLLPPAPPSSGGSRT
T5 sequence (P22607 23-806 V555M): as the sequence (P22607 23-806) above, with V533M counted along it
Chain of FGFR4 (P22455 22-802): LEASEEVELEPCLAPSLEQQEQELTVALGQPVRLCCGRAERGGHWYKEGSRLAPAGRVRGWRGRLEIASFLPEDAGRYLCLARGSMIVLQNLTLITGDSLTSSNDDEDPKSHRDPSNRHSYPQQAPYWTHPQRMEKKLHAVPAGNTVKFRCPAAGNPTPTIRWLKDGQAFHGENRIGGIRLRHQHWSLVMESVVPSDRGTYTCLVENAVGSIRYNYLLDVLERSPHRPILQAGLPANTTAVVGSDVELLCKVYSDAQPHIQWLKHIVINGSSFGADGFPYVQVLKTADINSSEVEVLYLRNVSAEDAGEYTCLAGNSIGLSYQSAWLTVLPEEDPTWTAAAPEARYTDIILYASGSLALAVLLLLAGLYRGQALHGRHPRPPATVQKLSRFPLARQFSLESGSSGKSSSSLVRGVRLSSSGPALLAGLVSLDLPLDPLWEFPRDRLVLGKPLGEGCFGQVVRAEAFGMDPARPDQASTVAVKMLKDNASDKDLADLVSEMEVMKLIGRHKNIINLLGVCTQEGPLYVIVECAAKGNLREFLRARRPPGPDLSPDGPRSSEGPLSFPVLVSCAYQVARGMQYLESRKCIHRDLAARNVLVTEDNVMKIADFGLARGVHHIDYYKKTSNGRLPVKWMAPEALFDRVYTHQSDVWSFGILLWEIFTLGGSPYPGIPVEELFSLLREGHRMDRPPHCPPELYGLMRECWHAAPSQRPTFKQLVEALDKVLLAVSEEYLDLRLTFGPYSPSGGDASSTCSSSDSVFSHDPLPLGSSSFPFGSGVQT
T3 sequence (P22607 23-806 G697C): as the sequence (P22607 23-806) above, with G675C counted along it
T2 sequence (P21802 22-822 isoform P21802-3 N550K limits assumed): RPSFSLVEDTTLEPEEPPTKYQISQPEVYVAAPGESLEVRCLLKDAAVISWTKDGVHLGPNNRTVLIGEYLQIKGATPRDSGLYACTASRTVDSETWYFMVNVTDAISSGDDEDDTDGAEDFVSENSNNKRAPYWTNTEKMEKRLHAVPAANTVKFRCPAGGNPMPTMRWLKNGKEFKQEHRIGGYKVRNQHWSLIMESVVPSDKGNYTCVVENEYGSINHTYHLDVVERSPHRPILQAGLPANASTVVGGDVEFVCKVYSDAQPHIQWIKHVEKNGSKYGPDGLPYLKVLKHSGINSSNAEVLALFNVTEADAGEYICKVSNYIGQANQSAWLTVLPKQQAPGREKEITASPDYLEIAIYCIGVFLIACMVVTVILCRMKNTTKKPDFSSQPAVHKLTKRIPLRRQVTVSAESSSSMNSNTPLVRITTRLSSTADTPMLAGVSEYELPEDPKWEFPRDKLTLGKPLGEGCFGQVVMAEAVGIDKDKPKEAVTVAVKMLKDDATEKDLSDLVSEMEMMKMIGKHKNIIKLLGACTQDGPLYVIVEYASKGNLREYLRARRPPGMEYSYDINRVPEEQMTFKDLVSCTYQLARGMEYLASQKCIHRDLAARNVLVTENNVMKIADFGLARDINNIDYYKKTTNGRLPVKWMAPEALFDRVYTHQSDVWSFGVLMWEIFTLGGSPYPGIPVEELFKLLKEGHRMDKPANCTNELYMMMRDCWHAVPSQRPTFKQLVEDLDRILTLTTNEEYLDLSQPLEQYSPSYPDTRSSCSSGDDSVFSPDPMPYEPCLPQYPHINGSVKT
T1 sequence (P22607 23-806 K650E): as the sequence (P22607 23-806) above, with K628E counted along it

As to `Cc1ccc(C(=O)Nc2ccc(CN3CCN(C)CC3)c(C(F)(F)F)c2)cc1C#Cc1cnc2[nH]ncc2c1` [GZD824], the equilibrium dissociation constant (Kd) stood at 11 nM on FGFR3‐K650E; 17 ± 5.7 nM at FGFR2‐N550K; 39.5 ± 7.8 nM at FGFR3‐G697C; 15.5 ± 3.5 nM on FGFR2 [2]; 19.5 ± 4.9 nM at FGFR3‐V555 M; 19 ± 1.4 nM at FGFR4. Moreover, the “tumor growth inhibition (TGI)” value in data set [1] came to 49.8%. The “mortality and body weight during experiment” value in [3] is “no mortality or significant loss of body weight”. Besides, the half-maximal inhibitory concentration (IC50) is 2.77 ± 0.082 nM at FGFR2 [4]; 8.1 ± 0.15 nM against FGFR3; 4 to 91 nM in the data set on FGFR1–FGFR3 cell lines; 14.4 ± 4.8 nM in the data set on SNU16; 91 ± 5.7 nM with RT112; 10.8 ± 0.8 nM with H1581. Further, the IC50 with MDA‐MB‐453 was 148 ± 104 nM; in the data set with KATOIII it was 9.8 ± 1.2 nM; with MKN‐1 it was 743 ± 31.8 nM; in the data set on MDA‐MB‐231 (setting [5]), above 1000 nM; in the data set on MDA‐MB‐231 (read-out: antiproliferative IC50, MDA‐MB‐231, negative control), 2000 ± 782 nM. In addition, the EC50 at FGFR2 [4] (Figure 1B curve fit) was 2.72 nM; on FGFR3 (Figure 1B curve fit) it was 8.2 nM. In addition, the “effect on pAKT” value in the data set on pAKT in SNU‐16 and in the data set on pAKT in NCI‐H716 was “strongly inhibit” each time. This compound returned a G0/G1 phase in the data set on Ba/F3‐FGFR1 of 70.88%.
In the case of `CCN1CCN(c2ccc(Nc3cc(N(C)C(=O)Nc4c(Cl)c(OC)cc(OC)c4Cl)ncn3)cc2)CC1` [BGJ398], the 50% inhibitory concentration (IC50) with SNU16 was 18.6 ± 6.3 nM; with RT112 it was 233 ± 76.7 nM; in the data set with H1581, 19.4 ± 2.5 nM; in the data set with MDA‐MB‐453, 2700 ± 104 nM; in the data set on KATOIII, 17.1 ± 2.4 nM; in the data set with MKN‐1, 5110 ± 481 nM. Further, the half-inhibitory concentration (IC50) in the data set on MDA‐MB‐231 (setting [5]) was above 10000 nM.

Usually Kd stands for the free concentration of one partner at which half of the binding sites on the other are occupied at equilibrium, for simple one-to-one binding. As a reminder, the IC50 is the concentration that inhibits the measured activity by half. Usually EC50 stands for the concentration needed to bring the measured effect to its halfway point. Low readings indicate higher potency in that assay, high ones lower potency in that assay.
